Measured values published in patent US20190194209A1, “PYRAZOLE CARBOXAMIDE COMPOUNDS AND METHODS OF USE” (Genentech, Inc., priority 2014, published 2019).
Where two headings read alike, the source gives them in different places.

How the values were obtained:
[1] = target: T1, full length human wildtype Btk (Homo sapiens, UniProt Q06187); assay: Biochemical Btk Kinase Assay (Example 901); details: read-out: BTK LC3K (Ki)
T1 construct: V5 (C); 6xHis (C); made in house; host or cells: Sf9 cells (baculovirus, pFastBac)
Protocol: Formula I compounds were tested by a standard biochemical Btk, Kinase Assay (Example 901). A generalized procedure for a standard biochemical Btk, Kinase Assay that can be used to test Formula I compounds is as follows. A master mix minus Btk enzyme is prepared containing 1× Cell Signaling kinase buffer (25 mM Tris-HCl, pH 7.5, 5 mM beta-glycerophosphate, 2 mM dithiothreitol, 0.1 mM Na3VO4, 10 mM MgCl2), 0.5 μM Promega PTK Biotinylated peptide substrate 2, and 0.01% BSA. A master mix plus Btk enzyme is prepared containing 1× Cell Signaling kinase buffer, 0.5 μM (micromolar) PTK Biotinylated peptide substrate 2, 0.01% BSA, and 100 ng/well (0.06 mU/well) Btk enzyme. Btk enzyme is prepared as follows: full length human wildtype Btk (accession number NM-000061) with a C-terminal V5 and 6×His tag was subcloned into pFastBac® vector (Invitrogen/Life Technologies) for making baculovirus carrying this epitope-tagged Btk. Generation of baculovirus is done based on Invitrogen's instructions detailed in its published protocol “Bac-to-Bac Baculovirus Expression Systems” (Invitrogen/Life Technologies, Cat. Nos. 10359-016 and 10608-016). Passage 3 virus is used to infect Sf9 cells to overexpress the recombinant Btk protein. The Btk protein is then purified to homogeneity using Ni-NTA column. The purity of the final protein preparation is greater than 95% based on the sensitive Sypro-Ruby staining. A solution of 200 μM ATP is prepared in water and adjusted to pH 7.4 with 1N NaOH. A quantity of 1.25 μL (microliter) of compounds in 5% DMSO is transferred to a 96-well 2 area Costar polystyrene plate. Compounds are tested singly and with an 11-point dose-responsive curve (starting concentration is 10 μM; 1:2 dilution). A quantity of 18.75 μL of master mix minus enzyme (as a negative control) and master mix plus enzyme is transferred to appropriate wells in 96-well 2 area costar polystyrene plate. 5 μL of 200 μM ATP is added to that mixture in the 96-well 2 area Costar polystyrene plate for final ATP concentration of 40 μM. The reaction is allowed to incubate for 1 hour at room temperature. The reaction is stopped with Perkin Elmer 1× detection buffer containing 30 mM EDTA, 20 nM SA-APC, and 1 nM PT66 Ab. The plate is read using time-resolved fluorescence with a Perkin Elmer Envision using excitation filter 330 nm, emission filter 665 nm, and 2nd emission filter 615 nm. IC50 values are subsequently calculated. Alternatively, the Lanthascreen assay can be used to evaluate Btk activity through quantification of its phosphorylated peptide product. The FRET (Fluorescence Resonance Energy Transfer) that occurs between the fluorescein on the peptide product and the terbium on the detection antibody decreases with the addition of inhibitors of Btk that reduce the phosphorylation of the peptide. In a final reaction volume of 25 μL (microliters), Btk (h) (0.1 ng/25 μl reaction) is incubated with 50 mM Hepes pH 7.5, 10 mM MgCl2, 2 mM MnCl2, 2 mM DTT, 0.2 mM NaVO4, 0.01% BSA, and 0.4 uM fluorescein poly-GAT. The reaction is initiated by the addition of ATP to 25 μM (micromolar) the Km of ATP. After incubation for 60 minutes at room temperature, the reaction is stopped by the addition of a final concentration of 2 nM Tb-PY20 detection antibody in 60 mM EDTA for 30 minutes at room temperature. Detection is determined on a Perkin Elmer Envision with 340 nm excitation and emission at 495 nm and 520 nm. Exemplary Btk inhibition […] values are in Table 1.

[2] = tested on: CD69 production by B lymphocytes in human whole blood activated with goat F(ab')2 anti-human IgM; assay: CD69 Whole Blood Assay (Example 907); type: cell-based; details: Lymphocyte, read-out: CD69 Hu Blood FACS (IC70)
Description: A CD69 Whole Blood Assay can be conducted on Formula I compounds to determine the ability of compounds to inhibit the production of CD69 by B lymphocytes in human whole blood activated by crosslinking surface IgM with goat F(ab′)2 anti-human IgM (Example 907). CD69 is a type II C-type lectin involved in lymphocyte migration and cytokine secretion. CD69 expression represents one of the earliest available indicators of leukocyte activation and its rapid induction occurs through transcriptional activation (Vazquez et al (2009) Jour. of Immunology Published Oct. 19, 2009, doi: 10.4049/jimmunol.0900839). Concentration-dependent inhibition of antigen receptor stimulation by selective Btk inhibitors induces cell surface expression of the lymphocyte activation marker CD69 (Honigberg et al (2010) Proc. Natl. Acad. Sci. 107(29):13075-13080). Thus, CD69 inhibition by selective Btk inhibitors may be correlated with therapeutic efficacy of certain B-cell disorders.
Human blood is obtained from healthy volunteers, with the following restrictions: 1 week drug-free, non-smokers. Blood (approximately 20 mls to test 8 compounds) is collected by venipuncture into Vacutainer® (Becton, Dickinson and Co.) tubes with sodium heparin.
Solutions of Formula I compounds at 10 mM in DMSO are diluted 1:10 in 100% DMSO, then are diluted by three-fold serial dilutions in 100% DMSO for a ten point dose-response curve. The compounds are further diluted 1:10 in PBS and then an aliquot of 5.5 μl of each compound is added in duplicate to a 2 ml 96-well plate; 5.5 μl of 10% DMSO in PBS is added as control and no-stimulus wells. Human whole blood—HWB (100 μl) is added to each well. After mixing the plates are incubated at 37° C., 5% CO2, 100% humidity for 30 minutes. Goat F(ab′)2 anti-human IgM (10 μl of a 500 μg/ml solution, 50 μg/ml final) is added to each well (except the no-stimulus wells) with mixing and the plates are incubated for an additional 20 hours. At the end of the 20 hour incubation, samples are incubated with fluorescent labeled antibodies for 30 minutes, at 37° C., 5% CO2, 100% humidity. Include induced control, unstained and single stains for compensation adjustments and initial voltage settings. Samples are then lysed with PharM Lyse™ (BD Biosciences Pharmingen) according to the manufacturer's instructions. Samples are then transferred to a 96 well plate suitable to be run on the BD Biosciences HTS 96 well system on the LSRII machine. Data acquired and Mean Fluorescence Intensity values were obtained using BD Biosciences DIVA Software. Results are initially analyzed by FACS analysis software (Flow Jo).

[3] = human whole blood, anti-IgM stimulated, 20 hour incubation, CD20 positive cells, FACS

T1 sequence (Q06187 whole entry): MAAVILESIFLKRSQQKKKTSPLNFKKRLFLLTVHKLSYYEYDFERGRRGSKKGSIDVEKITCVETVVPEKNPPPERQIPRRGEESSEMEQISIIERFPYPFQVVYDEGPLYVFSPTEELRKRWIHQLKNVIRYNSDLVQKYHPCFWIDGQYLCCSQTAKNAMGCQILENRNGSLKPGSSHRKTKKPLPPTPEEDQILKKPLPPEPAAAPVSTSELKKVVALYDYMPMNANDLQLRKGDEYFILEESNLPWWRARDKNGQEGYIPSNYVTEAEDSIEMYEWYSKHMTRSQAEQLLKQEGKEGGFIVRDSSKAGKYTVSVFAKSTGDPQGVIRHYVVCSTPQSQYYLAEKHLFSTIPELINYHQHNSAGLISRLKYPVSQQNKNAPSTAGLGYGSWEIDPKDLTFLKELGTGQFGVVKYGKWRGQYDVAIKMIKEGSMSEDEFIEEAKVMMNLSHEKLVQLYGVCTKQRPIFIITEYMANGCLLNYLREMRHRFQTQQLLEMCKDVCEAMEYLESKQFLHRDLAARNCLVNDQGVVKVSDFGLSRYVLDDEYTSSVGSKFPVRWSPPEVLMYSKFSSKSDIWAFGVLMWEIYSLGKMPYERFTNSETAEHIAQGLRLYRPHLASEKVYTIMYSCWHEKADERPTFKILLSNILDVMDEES

Row | SMILES | Ki [1] | IC70 [2, 3] | IC70 ([2]; Homo sapiens, 20 h)
1 | CC(C)(C)c1cc(F)c2c(=O)n(-c3nccc(-n4cc(C(N)=O)c(-c5cnn(C(F)F)c5)n4)c3CO)ncc2c1 [Example 121, 1-[2-(6-tert-butyl-8-fluoro-1-oxo-phthalazin-2-yl)-3-(hydroxymethyl)-4-pyridyl]-3-[1-(difluoromethyl)pyrazol-4-yl]pyrazole-4-carboxamide] | 1.15 nM | 1.4 µM | 
2 | Cn1cc(-c2nn(-c3ccnc(-n4ncc5cc(C(C)(C)C)cc(F)c5c4=O)c3CO)cc2C(N)=O)cn1 [Example 115, 1-[2-(6-tert-butyl-8-fluoro-1-oxo-phthalazin-2-yl)-3-(hydroxymethyl)-4-pyridyl]-3-(1-methylpyrazol-4-yl)pyrazole-4-carboxamide] | 0.997 nM | 0.268 µM | 
3 | CC(C)(C)c1cc(F)c2c(=O)n(-c3nccc(-n4cc(C(N)=O)c(Nc5ccc(Cl)cn5)n4)c3CO)ncc2c1 [Example 116, 1-[2-(6-tert-butyl-8-fluoro-1-oxo-phthalazin-2-yl)-3-(hydroxymethyl)-4-pyridyl]-3-[(5-chloro-2-pyridyl)amino]pyrazole-4-carboxamide] | 0.403 nM | 0.311 µM | 
4 | Cn1cc(Nc2nn(-c3ccnc(-n4ncc5cc(C(C)(C)C)cc(F)c5c4=O)c3CO)cc2C(N)=O)nn1 [Example 111, 1-[2-(6-tert-butyl-8-fluoro-1-oxo-phthalazin-2-yl)-3-(hydroxymethyl)-4-pyridyl]-3-[(1-methyltriazol-4-yl)amino]pyrazole-4-carboxamide] | 0.131 nM | 0.0773 µM | 
5 | CC(C)(C)c1cc(F)c2c(=O)n(-c3nccc(-n4cc(C(N)=O)c(Nc5ccc(N6CCNCC6)cn5)n4)c3CO)ncc2c1 [Example 118, 1-[2-(6-tert-butyl-8-fluoro-1-oxo-phthalazin-2-yl)-3-(hydroxymethyl)-4-pyridyl]-3-[(5-piperazin-1-yl-2-pyridyl)amino]pyrazole-4-carboxamide] | 0.248 nM | 0.574 µM | 
6 | Cc1nn(C)cc1-c1nn(-c2ccnc(-n3ncc4cc(C(C)(C)C)cc(F)c4c3=O)c2CO)cc1C(N)=O [Example 122, 1-[2-(6-tert-butyl-8-fluoro-1-oxo-phthalazin-2-yl)-3-(hydroxymethyl)-4-pyridyl]-3-(1,3-dimethylpyrazol-4-yl)pyrazole-4-carboxamide] | 8.6 nM | 3.3 µM | 
7 | Cn1cc(-c2nn(-c3cc(F)cc(-n4ncc5cc(C(C)(C)C)cc(F)c5c4=O)c3CO)cc2C(N)=O)cn1 [Example 127, 1-[3-(6-tert-butyl-8-fluoro-1-oxo-phthalazin-2-yl)-5-fluoro-2-(hydroxymethyl)phenyl]-3-(1-methylpyrazol-4-yl)pyrazole-4-carboxamide] | 1.3 nM | 5 µM | 
8 | CC(C)(C)c1cc(F)c2c(=O)n(-c3nccc(-n4cc(C(N)=O)c(Nc5ccccn5)n4)c3CO)ncc2c1 [Example 106, 1-[2-(6-tert-butyl-8-fluoro-1-oxo-phthalazin-2-yl)-3-(hydroxymethyl)-4-pyridyl]-3-(2-pyridylamino)pyrazole-4-carboxamide] | 0.34 nM |  | 0.132 µM

Further lines, with some results ahead:

Row | Ki [1] | SMILES | IC70 [2, 3] | IC70 ([2]; Homo sapiens, 20 h)
9 | 0.249 nM | CC1(C)Cc2cc3n(c2C1)CCN(c1cccc(-n2cc(C(N)=O)c(Nc4ccncn4)n2)c1CO)C3=O [Example 104, 1-[3-(7,7-dimethyl-4-oxo-1,2,6,8-tetrahydrocyclopenta[3,4]pyrrole[3,5-b]pyrazin-3-yl)-2-(hydroxymethyl)phenyl]-3-(pyrimidin-4-ylamino)pyrazole-4-carboxamide] | 0.0362 µM | 
10 | 0.565 nM | CC1(C)Cc2cc3n(c2C1)CCN(c1nccc(-n2cc(C(N)=O)c(Nc4ccccn4)n2)c1CO)C3=O [Example 103, 1-[2-(7,7-dimethyl-4-oxo-1,2,6,8-tetrahydrocyclopenta[3,4]pyrrole[3,5-b]pyrazin-3-yl)-3-(hydroxymethyl)-4-pyridyl]-3-(2-pyridylamino)pyrazole-4-carboxamide] | 0.127 µM | 
11 | 0.317 nM | Cn1cc(Nc2nn(-c3ccnc(N4CCn5c(cc6c5CC(C)(C)C6)C4=O)c3CO)cc2C(N)=O)nn1 [Example 119, 1-[2-(7,7-dimethyl-4-oxo-1,2,6,8-tetrahydrocyclopenta[3,4]pyrrolo[3,5-b]-pyrazin-3-yl)-3-(hydroxymethyl)-4-pyridyl]-3-[(1-methyltriazol-4-yl)amino]pyrazole-4-carboxamide] | 0.0472 µM | 
12 | 2.4 nM | CC1(C)Cc2cc3n(c2C1)CCN(c1nccc(-n2cc(C(N)=O)c(Nc4ccccc4)n2)c1CO)C3=O [Example 101, 3-anilino-1-[2-(7,7-dimethyl-4-oxo-1,2,6,8-tetrahydrocyclopenta[3,4]pyrrolo[3,5-b]pyrazin-3-yl)-3-(hydroxymethyl)-4-pyridyl]pyrazole-4-carboxamide] | 0.0369 µM | 
13 | 1.83 nM | CC1(C)Cc2cc3n(c2C1)CCN(c1nccc(-n2nc(C(N)=O)c4ccccc42)c1CO)C3=O [Example 108, 1-[2-(7,7-dimethyl-4-oxo-1,2,6,8-tetrahydrocyclopenta[3,4]pyrrolo[3,5-b]pyrazin-3-yl)-3-(hydroxymethyl)-4-pyridyl]indazole-3-carboxamide] | 0.726 µM | 
14 | 0.326 nM | Cn1cc(Nc2nn(-c3cccc(N4CCn5c(cc6c5CC(C)(C)C6)C4=O)c3CO)cc2C(N)=O)nn1 [Example 105, 1-[3-(7,7-dimethyl-4-oxo-1,2,6,8-tetrahydrocyclopenta[3,4]pyrrole[3,5-b]pyrazin-3-yl)-2-(hydroxymethyl)phenyl]-3-[(1-methyltriazol-4-yl)amino]pyrazole-4-carboxamide] | 0.0323 µM | 
